In PubChem BioAssay (NCI):
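Briefly, cells in 96-well plates were exposed to five compound concentrations for 48 h, and endpoints were estimated by linear interpolation. At the GI50, growth is halved. TGI: total growth inhibition.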

How the values were obtained:
Assay in all cases: NCI tumour cell line growth inhibition, 48 h
CCRF-CEM leukemia = system: CCRF-CEM leukemia
DU-145 prostate = system: DU-145 prostate
HCT-15 colon = system: HCT-15 colon
HS 578T breast = system: HS 578T breast
MDA-MB-231 breast = system: MDA-MB-231 breast
OVCAR-3 ovarian = system: OVCAR-3 ovarian
SK-MEL-2 melanoma = system: SK-MEL-2 melanoma
SK-MEL-5 melanoma = system: SK-MEL-5 melanoma
SNB-19 CNS = system: SNB-19 CNS
T-47D breast = system: T-47D breast

SMILES: Nc1cc(C(F)(F)F)c(-c2nc(N3CCOCC3)nc(N3CCOCC3)n2)cn1
- GI50 (CCRF-CEM leukemia): 2970 nM
- TGI (CCRF-CEM leukemia): > 100 µM
- GI50 (DU-145 prostate): 475 nM
- TGI (DU-145 prostate): > 100 µM
- GI50 (HCT-15 colon): 318 nM
- TGI (HCT-15 colon): > 56.1 µM
- GI50 (HS 578T breast): 231 nM
- TGI (HS 578T breast): 1.46 µM
- GI50 (MDA-MB-231 breast): 703 nM
- TGI (MDA-MB-231 breast): 40.6 µM
- GI50 (OVCAR-3 ovarian): 313 nM
- TGI (OVCAR-3 ovarian): 11.2 µM
- GI50 (SK-MEL-2 melanoma): 618 nM
- TGI (SK-MEL-2 melanoma): 8.68 µM
- GI50 (SK-MEL-5 melanoma): 384 nM
- TGI (SK-MEL-5 melanoma): 2.54 µM
- GI50 (SNB-19 CNS): 2110 nM
- TGI (SNB-19 CNS): 44.5 µM
- GI50 (T-47D breast): 32.8 nM
- TGI (T-47D breast): 0.347 µM

SMILES: COc1ccc(-n2c(=O)c3ccccc3n(Cc3ccc(C(=O)NO)cc3)c2=O)cc1
- GI50 (CCRF-CEM leukemia): 2800 nM
- TGI (CCRF-CEM leukemia): > 100 µM
- GI50 (DU-145 prostate): 3240 nM
- TGI (DU-145 prostate): > 100 µM
- GI50 (HCT-15 colon): 3220 nM
- TGI (HCT-15 colon): 16.2 µM
- GI50 (HS 578T breast): 2670 nM
- TGI (HS 578T breast): 24.2 µM
- GI50 (MDA-MB-231 breast): 3060 nM
- TGI (MDA-MB-231 breast): 8.63 µM
- GI50 (OVCAR-3 ovarian): 2070 nM
- TGI (OVCAR-3 ovarian): 5.95 µM
- GI50 (SK-MEL-2 melanoma): 2310 nM
- TGI (SK-MEL-2 melanoma): 7.13 µM
- GI50 (SK-MEL-5 melanoma): 1730 nM
- TGI (SK-MEL-5 melanoma): 3.45 µM
- GI50 (SNB-19 CNS): 2960 nM
- TGI (SNB-19 CNS): 18.5 µM
- GI50 (T-47D breast): 1900 nM
- TGI (T-47D breast): 6.63 µM

SMILES: Cc1cccc(Oc2ccc(Nc3ncnc4ccc(NC(=O)CN(C)C)cc34)cc2Cl)c1
- GI50 (CCRF-CEM leukemia): 2540 nM
- TGI (CCRF-CEM leukemia): 8.14 µM
- GI50 (DU-145 prostate): 2140 nM
- TGI (DU-145 prostate): 10.8 µM
- GI50 (HCT-15 colon): 1600 nM
- TGI (HCT-15 colon): 3.13 µM
- GI50 (HS 578T breast): 1810 nM
- TGI (HS 578T breast): 4.33 µM
- GI50 (MDA-MB-231 breast): 1720 nM
- TGI (MDA-MB-231 breast): 3.57 µM
- GI50 (OVCAR-3 ovarian): 1160 nM
- TGI (OVCAR-3 ovarian): 3 µM
- GI50 (SK-MEL-2 melanoma): 1840 nM
- TGI (SK-MEL-2 melanoma): 3.63 µM
- GI50 (SK-MEL-5 melanoma): 1640 nM
- TGI (SK-MEL-5 melanoma): 3.03 µM
- GI50 (SNB-19 CNS): 2110 nM
- TGI (SNB-19 CNS): 6.35 µM
- GI50 (T-47D breast): 1080 nM
- TGI (T-47D breast): 4.59 µM

SMILES: CCOC(=O)C#Cc1c(C(=O)OCC)nnn1[C@@H]1O[C@H](COC)[C@@H](OC)[C@H]1OC
- GI50 (CCRF-CEM leukemia): 1870 nM
- TGI (CCRF-CEM leukemia): 4.93 µM
- GI50 (DU-145 prostate): 10600 nM
- TGI (DU-145 prostate): 22.4 µM
- GI50 (HCT-15 colon): 2560 nM
- TGI (HCT-15 colon): 6.66 µM
- GI50 (HS 578T breast): 23700 nM
- TGI (HS 578T breast): 72.7 µM
- GI50 (MDA-MB-231 breast): 10700 nM
- TGI (MDA-MB-231 breast): 25.1 µM
- GI50 (OVCAR-3 ovarian): 1720 nM
- TGI (OVCAR-3 ovarian): 3.25 µM
- GI50 (SK-MEL-2 melanoma): 16600 nM
- TGI (SK-MEL-2 melanoma): 32.9 µM
- GI50 (SK-MEL-5 melanoma): 14300 nM
- TGI (SK-MEL-5 melanoma): 27.4 µM
- GI50 (SNB-19 CNS): 69400 nM
- TGI (SNB-19 CNS): > 100 µM
- GI50 (T-47D breast): 2470 nM
- TGI (T-47D breast): 7.39 µM

SMILES: CN1CCN(C(=O)/C=C/c2ccc([N+](=O)[O-])o2)CC1
- GI50 (CCRF-CEM leukemia): 2720 nM
- TGI (CCRF-CEM leukemia): 27.9 µM
- GI50 (DU-145 prostate): 9330 nM
- TGI (DU-145 prostate): 21.2 µM
- GI50 (HCT-15 colon): 3140 nM
- TGI (HCT-15 colon): 14.9 µM
- GI50 (HS 578T breast): 46500 nM
- TGI (HS 578T breast): > 100 µM
- GI50 (MDA-MB-231 breast): 14300 nM
- TGI (MDA-MB-231 breast): 34.7 µM
- GI50 (OVCAR-3 ovarian): 12900 nM
- TGI (OVCAR-3 ovarian): 26.2 µM
- GI50 (SK-MEL-2 melanoma): 6500 nM
- TGI (SK-MEL-2 melanoma): 29.6 µM
- GI50 (SK-MEL-5 melanoma): 7520 nM
- TGI (SK-MEL-5 melanoma): 20.4 µM
- GI50 (SNB-19 CNS): 38100 nM
- TGI (SNB-19 CNS): > 100 µM
- GI50 (T-47D breast): 18100 nM
- TGI (T-47D breast): 45.4 µM

SMILES: O=S(=O)(O)C(c1ccccc1)C(O)c1ccccc1 (stereo not given)
- TGI (CCRF-CEM leukemia): > 100 µM
- TGI (DU-145 prostate): > 100 µM
- TGI (HCT-15 colon): > 100 µM
- TGI (HS 578T breast): > 100 µM
- TGI (MDA-MB-231 breast): > 100 µM
- TGI (OVCAR-3 ovarian): > 100 µM
- TGI (SK-MEL-2 melanoma): > 100 µM
- TGI (SK-MEL-5 melanoma): > 100 µM
- TGI (SNB-19 CNS): > 100 µM
- TGI (T-47D breast): > 100 µM

SMILES: O=C(NO)c1ccc(CNc2cccc3nc(C4CC4)n(-c4ccccc4)c(=O)c23)cc1
- GI50 (CCRF-CEM leukemia): 1500 nM
- TGI (CCRF-CEM leukemia): > 100 µM
- GI50 (DU-145 prostate): 2520 nM
- TGI (DU-145 prostate): 13.7 µM
- GI50 (HCT-15 colon): 1980 nM
- TGI (HCT-15 colon): 6.33 µM
- GI50 (HS 578T breast): 2500 nM
- TGI (HS 578T breast): 20.6 µM
- GI50 (MDA-MB-231 breast): 2310 nM
- TGI (MDA-MB-231 breast): 7.33 µM
- GI50 (OVCAR-3 ovarian): 1920 nM
- TGI (OVCAR-3 ovarian): 5.51 µM
- GI50 (SK-MEL-2 melanoma): 2760 nM
- TGI (SK-MEL-2 melanoma): 7.45 µM
- GI50 (SK-MEL-5 melanoma): 2150 nM
- TGI (SK-MEL-5 melanoma): 4.8 µM
- GI50 (SNB-19 CNS): 2610 nM
- TGI (SNB-19 CNS): 9.68 µM
- GI50 (T-47D breast): 2080 nM
- TGI (T-47D breast): 7.34 µM

SMILES: COc1ccc(Cn2c(Br)c3c(c2-c2cc(OC)c(OC)c(OC)c2)CCc2sc(N)nc2-3)cc1
- GI50 (CCRF-CEM leukemia): 890 nM
- TGI (CCRF-CEM leukemia): 4.4 µM
- GI50 (DU-145 prostate): 2040 nM
- TGI (DU-145 prostate): 7.43 µM
- GI50 (HCT-15 colon): 1050 nM
- TGI (HCT-15 colon): > 48.7 µM
- GI50 (HS 578T breast): 2080 nM
- TGI (HS 578T breast): > 100 µM
- GI50 (MDA-MB-231 breast): 1920 nM
- TGI (MDA-MB-231 breast): 7.1 µM
- GI50 (OVCAR-3 ovarian): 861 nM
- TGI (OVCAR-3 ovarian): 9.61 µM
- GI50 (SK-MEL-2 melanoma): 720 nM
- TGI (SK-MEL-2 melanoma): 5.41 µM
- GI50 (SK-MEL-5 melanoma): 1600 nM
- TGI (SK-MEL-5 melanoma): 13.5 µM
- GI50 (SNB-19 CNS): 3970 nM
- TGI (SNB-19 CNS): > 100 µM
- GI50 (T-47D breast): 626 nM
- TGI (T-47D breast): 21.5 µM
